Laboratory results from ChEMBL document CHEMBL5236614, “Discovery of Potent and Selective Dual Leucine Zipper Kinase/Leucine Zipper-Bearing Kinase Inhibitors with Neuroprotective Properties in In Vitro and In Vivo Models of Amyotrophic Lateral Sclerosis” (J Med Chem, 2022).

Assay: Microsomal stability in human liver microsomes assessed as intrinsic clearance
Format: ADME, Microsome
Details: read-out: CLH

CLint scaled	Compound
15.9 mL/min/kg	Nc1ncc(-c2cc(C3CC3)cc(N3C[C@@H]4C[C@H]3CO4)n2)nc1OC(F)F
15.8 mL/min/kg	Nc1ncc(-c2cc(C3CC3)nc(N3C[C@@H]4C[C@H]3CO4)c2)nc1OC(F)F
